Test results reported in publication PMC9698483, “Berbamine Reduces Chloroquine-Induced Itch in Mice through Inhibition of MrgprX1” (International Journal of Molecular Sciences, 2022).

Tests used:
[1] = tested on: ERK1/2 phosphorylation through MrgprX1; assay: Immunoblot of ERK1/2 phosphorylation in HEK293T cells expressing MrgprX1; format: cell-based, human; conditions: HEK-MrgprX1 cells
[2] = tested on: ERK1/2 phosphorylation through MrgprA3; assay: Immunoblot of ERK1/2 phosphorylation in HEK293T cells expressing MrgprA3; format: cell-based, mouse; conditions: HEK-MrgprA3 cells
[3] = tested on: CQ-resistant strain of P. falciparum; design: method as in doi:10.1002/ddr.430300405; conditions: in vitro, compound alone; read-out: IC50 antimalaria effect, CQ-resistant strain; cited from earlier work
[4] = molecular target: T1, MrgprX1 (Homo sapiens, UniProt Q96LB2); assay: Intracellular calcium measurement (Fluo-4 NW) in HEK293T cells expressing MrgprX1; format: cell-based
T1 construct: expressed in transfected cells
Protocol: To identify novel antagonists of MrgprX1, a cell-based screening assay was established. […] Cells were treated with the indicated concentrations of CQ where the arrow indicates. (B) Summary of dose-response (mean ± S.E., n = 6). (C) Representative Fluo−4 fluorescence traces of MrgprX1 antagonist screening. Cells were treated with 30 μM of the test compounds for 10 min prior to treatment with 300 μM CQ.
Figure 2 Effect of berbamine and closantel on CQ- and ionomycin-induced increases in intracellular calcium levels: (A,B) Intracellular calcium levels were measured using Fluo−4 NW in HEK293T cells expressing MrgprX1. The cells were pretreated with the indicated concentrations of berbamine (BBM) and closantel (CLS) for 10 min prior to treatment with 300 μM CQ. (C) Summary of dose-response (mean ± S.E., n = 6). […] The cells were pretreated with the indicated concentrations of BBM and CLS for 10 min before treatment with ionomycin. (F) Summary of dose–response (mean ± S.E., n = 6).
Intracellular calcium levels were measured using a Fluo-4 NW calcium assay kit (Invitrogen, Carlsbad, CA) as per the manufacturer’s protocol in HEK293T and HT29 cells. Briefly, the cells were plated in a 96-well black-walled plate and incubated with 100 μL of assay buffer including Fluo-4 NW. […] Intracellular calcium increase was induced with the application of the indicated agonist. All modulators were dissolved in DMSO, and cells were treated with a final concentration of 1% DMSO.

[5] = molecular target: T2, MrgprA3 (Mus musculus, UniProt Q91WW3); assay: Intracellular calcium measurement in HEK293T cells expressing mouse MrgprA3; format: cell-based; conditions: HEK293T cells overexpressing MrgprA3; read-out: EC50 of MrgprA3 activation
T2 construct: expressed in transfected cells; host or cells: HEK293T
T2 sequence (Q91WW3 1-302): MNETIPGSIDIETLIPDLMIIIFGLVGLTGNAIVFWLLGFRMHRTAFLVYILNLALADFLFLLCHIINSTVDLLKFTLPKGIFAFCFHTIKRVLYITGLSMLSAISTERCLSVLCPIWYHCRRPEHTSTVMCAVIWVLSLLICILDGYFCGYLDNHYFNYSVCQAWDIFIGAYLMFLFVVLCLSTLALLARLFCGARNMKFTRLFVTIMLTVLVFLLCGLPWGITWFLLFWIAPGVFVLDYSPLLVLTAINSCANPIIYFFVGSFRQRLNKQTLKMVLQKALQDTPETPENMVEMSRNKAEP
Protocol: MRGPRA3 and MRGPRC11 are mouse orthologs of human MRGPRX1, and MrgprA3 is also activated by CQ, resulting in CQ-induced pruritus. To investigate the inhibitory effect of berbamine on MrgprA3, we established HEK293T cells overexpressing MrgprA3. […] We further investigated whether berbamine inhibited CQ-induced ERK1/2 phosphorylation in HEK-MrgprA3 cells. Strong and significant ERK1/2 phosphorylation was observed following CQ application, and ERK1/2 phosphorylation peaked 5 min after CQ treatment (Figure 6A,B).
Figure 5 Effect of berbamine on CQ-induced activation of MrgprA3: (A) Intracellular calcium levels were measured in HEK293T cells expressing mouse MrgprA3. Cells were treated with indicated concentrations of CQ. (B) Summary of dose–response (mean ± S.E., n = 6). (C) Cells were pretreated with indicated concentrations of berbamine for 10 min prior to 300 μM CQ treatment. (D) Summary of dose-response (mean ± S.E., n = 6). (E) Representative traces of intracellular calcium responses to BAM8−22 in HEK293T cells expressing MrgprC11. […]
(§1) Intracellular calcium levels were measured using a Fluo-4 NW calcium assay kit (Invitrogen, Carlsbad, CA) as per the manufacturer’s protocol in HEK293T and HT29 cells. […] After 1 h of incubation, Fluo-4 fluorescence was recorded with a FLUOstar Omega microplate reader equipped with syringe pumps and custom Fluo-4 excitation/emission filters (485/538 nm). […]

[6] = molecular target: T3, histamine H1 receptor (H1R) (Homo sapiens, UniProt P35367); assay: Histamine-induced activation of H1R in H1R-expressing HEK293T cells (calcium); format: cell-based; conditions: 30 μM compound, 10 min prior to 100 μM histamine
T3 construct: expressed in transfected cells; host or cells: HEK293T
Protocol: (§2) To investigate the effect of berbamine on other pruritogenic GPCRs, we observed the effect of berbamine on histamine H1 receptor (H1R), histamine H4 receptor (H4R), MrgprC11, MrgprX4, PAR2, and TGR5.
(§3) Figure 3 Effects of berbamine on the activity of other pruritogenic GPCRs: (A,B) Effect of berbamine on histamine 1 receptor (H1R) and histamine 4 receptor (H4R). H1R- and H4R-expressing HEK293T cells were pretreated with 30 μM BBM for 10 min prior to 100 μM histamine treatment. […] (C) Effect of berbamine on PAR2. HT29 cells were pretreated with BBM for 10 min prior to 30 μM PAR2-AP treatment. […] (D) Effect of berbamine on MrgprC11. MrgprC11-expressing HEK293T cells were pretreated with BBM for 10 min prior to 100 μM […] treatment. (E) Effect of berbamine on MrgprX4. MrgprX4-expressing HEK293T cells were pretreated with BBM for 10 min prior to 80 μM DCA treatment. (F) Effect of berbamine on TGR5. TGR5 activity was measured using a YFP fluorescence quenching assay. CHO-K1 cells coexpressing TGR5 and a halide sensor YFP were pretreated with BBM and 80 μM DCA for 10 min prior to I^- treatment. Results were summarized as means ± S.E. (n = 6). NTC, nontransfected cells.
(§4) Intracellular calcium levels were measured using a Fluo-4 NW calcium assay kit (Invitrogen, Carlsbad, CA) as per the manufacturer’s protocol in HEK293T and HT29 cells. […]

[7] = tested on: HEK293T cells; assay: Ionomycin-induced increase in intracellular calcium levels in HEK293T cells; format: cell-based; conditions: 10 μM ionomycin, 10 min pretreatment
Protocol: To investigate whether berbamine and closantel affect calcium signaling pathways, we observed the effects of berbamine and closantel on CQ- and ionomycin-induced increases in intracellular calcium concentrations in HEK-MrgprX1 and HEK293T cells, respectively.
Figure 2 Effect of berbamine and closantel on CQ- and ionomycin-induced increases in intracellular calcium levels: (A,B) Intracellular calcium levels were measured using Fluo−4 NW in HEK293T cells expressing MrgprX1. The cells were pretreated with the indicated concentrations of berbamine (BBM) and closantel (CLS) for 10 min prior to treatment with 300 μM CQ. (C) Summary of dose-response (mean ± S.E., n = 6). (D,E) Intracellular calcium levels were increased with 10 μM ionomycin in HEK239T cells. The cells were pretreated with the indicated concentrations of BBM and CLS for 10 min before treatment with ionomycin. (F) Summary of dose–response (mean ± S.E., n = 6).
as §1

[8] = tested on: CQ-induced itch; design: method as in PMID 16510108, PMID 32536619, PMID 35066892; conditions: cited from earlier work
[9] = tested on: MrgprX1 or MrgprA3; design: method as in PMID 16510108, PMID 32536619; conditions: read-out: IC50 (potency as antagonist); cited from earlier work
[10] = tested on: histamine-induced itch; design: method as in PMID 16510108, PMID 32536619, PMID 35066892; conditions: cited from earlier work
[11] = molecular target: T4, PAR2 (Homo sapiens, UniProt P55085); assay: PAR2-AP-induced activation of PAR2 in HT29 cells (calcium); format: cell-based; conditions: 30 μM compound, 10 min prior to 30 μM PAR2-AP
T4 construct: endogenous in cells; host or cells: HT29
T4 sequence (P55085 26-397): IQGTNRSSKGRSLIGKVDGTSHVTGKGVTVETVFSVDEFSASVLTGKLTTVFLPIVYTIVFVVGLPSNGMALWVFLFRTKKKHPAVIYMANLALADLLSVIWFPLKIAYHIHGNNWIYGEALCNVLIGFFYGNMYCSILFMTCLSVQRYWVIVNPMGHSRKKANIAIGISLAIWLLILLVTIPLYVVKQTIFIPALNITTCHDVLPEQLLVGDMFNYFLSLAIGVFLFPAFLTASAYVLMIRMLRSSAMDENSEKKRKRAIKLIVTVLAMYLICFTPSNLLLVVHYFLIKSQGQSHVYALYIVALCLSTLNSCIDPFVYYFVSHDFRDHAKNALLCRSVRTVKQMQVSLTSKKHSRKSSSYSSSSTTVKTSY
Protocol: as §2, §3, §4

T1 sequence (Q96LB2 whole entry): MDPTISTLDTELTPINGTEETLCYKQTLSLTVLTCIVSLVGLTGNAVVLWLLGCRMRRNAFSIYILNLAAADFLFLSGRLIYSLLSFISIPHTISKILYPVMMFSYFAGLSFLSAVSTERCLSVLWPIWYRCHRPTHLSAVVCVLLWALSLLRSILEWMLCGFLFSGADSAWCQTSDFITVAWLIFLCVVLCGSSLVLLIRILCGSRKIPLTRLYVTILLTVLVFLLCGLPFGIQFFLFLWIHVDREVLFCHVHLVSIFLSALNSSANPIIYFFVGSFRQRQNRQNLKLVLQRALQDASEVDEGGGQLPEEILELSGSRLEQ
T3 sequence (P35367 whole entry, species assumed): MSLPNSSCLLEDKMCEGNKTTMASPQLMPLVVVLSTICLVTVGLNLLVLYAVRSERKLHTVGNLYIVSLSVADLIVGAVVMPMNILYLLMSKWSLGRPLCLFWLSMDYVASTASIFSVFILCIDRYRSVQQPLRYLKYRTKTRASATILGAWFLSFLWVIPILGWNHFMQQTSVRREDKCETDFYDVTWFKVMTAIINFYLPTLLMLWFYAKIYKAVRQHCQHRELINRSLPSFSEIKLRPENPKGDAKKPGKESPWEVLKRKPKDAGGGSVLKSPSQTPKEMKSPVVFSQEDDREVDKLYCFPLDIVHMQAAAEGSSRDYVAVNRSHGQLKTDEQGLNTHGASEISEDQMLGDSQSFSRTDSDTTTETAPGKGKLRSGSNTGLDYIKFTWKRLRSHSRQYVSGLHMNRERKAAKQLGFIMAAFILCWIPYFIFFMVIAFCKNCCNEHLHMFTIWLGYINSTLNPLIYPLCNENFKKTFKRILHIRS

CCN(CC)CCCC(C)Nc1ccnc2cc(Cl)ccc12 (stereo not shown) [CQ, Chloroquine]
time of peak ERK1/2 phosphorylation after treatment [1]: 10 min
time of peak ERK1/2 phosphorylation after treatment [2]: 5 min
IC50 [3]: 203 ± 70.7 nM
EC50 ([4]; HEK-MrgprX1 cells, Fluo-4, read-out: EC50 of increase in intracellular calcium levels (MrgprX1 activation)): 96 µM
EC50 [5]: 234 µM

CN1CCC(=C2c3ccccc3CCn3c(C=O)cnc32)CC1 [alcaftadine, reference compound]
effect on histamine-induced activation of H1R [6]: significantly blocked

Cc1cc(C(C#N)c2ccc(Cl)cc2)c(Cl)cc1NC(=O)c1cc(I)cc(I)c1O (stereo not shown) [closantel, reference compound]
effect on ionomycin-induced increase in intracellular calcium levels [7]: inhibited it in a dose-dependent manner
inhibition at 30 µM ([4]; HEK-293T, read-out: inhibition of the CQ-induced activation of MrgprX1 (screening)): > 90%
IC50 ([4]; pretreated 10 min prior to 300 μM CQ, read-out: IC50 of inhibition of CQ-induced MrgprX1 activation): 3.6 µM

CC=CC(=O)N(CC)c1ccccc1C (mixture of isomers) [crotamiton]
effect on CQ-induced itch [8]: inhibits
IC50 [9]: 326 µM
effect on histamine-induced itch [10]: inhibits

O=C1O[C@H]2[C@@H]3OC(=O)c4cc(O)c(O)c(O)c4-c4c(O)c(O)c5oc(=O)c6c(c(O)c(O)c7oc(=O)c4c5c76)-c4c(cc(O)c(O)c4O)C(=O)OC[C@H]3OC(O)[C@@H]2OC(=O)c2cc(O)c(O)c(O)c2-c2c1cc(O)c(O)c2O (mixture of isomers) [punicalagin, reference compound]
effect on PAR2-AP-induced activation of PAR2 [11]: significantly blocked
